{"source": "patent US8658677B2", "about": "“Pyridyl-2-methylamino compounds, compositions and uses thereof” (Aria Neurosciences Inc., priority 2011, dated 2014)", "key": {"[1]": {"tested_on": "Aβ42", "assay": "Secretion of Aβ42 by 751APPSW CHO cells (sandwich ELISA)", "format": "cell-based", "conditions": "48 hr; for Emax: read-out: EMAX of Aβ42 production inhibition; for IC50: read-out: IC50% of Aβ42 production", "procedure": "(§1) In addition to studying the effect of ARN4261 and ARN2966 on Aβ oligomerization and fibrillization, we have explored their properties in respect to the modulation of Aβ production using CHO clones stably transfected with WT human APP751 and double Swedish APP751 mutant (KM670/671NL). The results in FIGS. 3(A) and 3(B) show inhibitory effect of ARN4261 and ARN2966 on secretion of Aβ40 and Aβ42 by 751APPSW CHO cells exposed to ARN compounds for 48 hr. Values are expressed as % of Aβ40 and Aβ42 levels in conditioned media (CM) of untreated cells. FIG. 3(C) Concentrations of Aβ40 and Aβ42 in 751APPSWCHO cell CM under increasing concentrations of ARN2966. 751APPSWCHO cells secrete Aβ40 and Aβ42 in proportions 9:1, akin to the proportions of Aβ peptides produced by neurons. […] Aβ40 and Aβ42 levels were determined using sandwich ELISA where C-terminal specific anti Aβ40 and Aβ42 mAbs were used as capture Abs and biotinylated 4G8 as the detection Ab. […] We also confirmed that ARN2966 inhibited secretion of Aβ by primary neuronal cultures derived from Tg2576 AD Tg mice."}, "[2]": {"tested_on": "Aβ40", "assay": "Secretion of Aβ40 by 751APPSW CHO cells (sandwich ELISA)", "format": "cell-based", "conditions": "48 hr; for Emax: read-out: EMAX of Aβ40 production inhibition; for IC50: read-out: IC50% of Aβ40 production", "procedure": "as §1"}, "[3]": {"target": "T1, Aβ40 (Homo sapiens, UniProt P05067)", "T1 construct": "host or cells: chemical solid-phase peptide synthesis (no expression host)", "T1 sequence (P05067 672-711)": "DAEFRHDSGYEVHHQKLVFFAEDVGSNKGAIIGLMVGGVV", "assay": "Thioflavin-T fibrillization assay", "format": "biochemical", "excerpt": "Synthetic Aβ 1-40 peptide (sequence: […]) was synthesized at the W.M. Keck Foundation Facility (Yale University, New Haven, Conn.) by solid-phase technique on a p-methyl-benzhydrylamine resin, using a Biosearch SAM 2 synthesizer and purified by high performance liquid chromatography (HPLC) with the use of a reverse-phase support medium (Delta-Bondapak) on a 0.78×30 cm column with a 0-66% linear gradient of acetonitrile in 0.1% (v/v) trifluroacetic acid, as previously described. The peptide content of the eluate was monitored by measurement of its absorption at 214 nm. To verify the sequence and purity of the peptide, linear, time-of-flight mass spectrometry was performed at the Skirball Institute at New York University. For aggregation studies the peptide was diluted in 1,1,1,3,3,3-hexafluoro-2-propanol (HFIP; Sigma St. Loius, Mo.) at a concentration of 10 mM/mL, aliquoted and lyophilized. HFIP treatment renders peptides monomeric with minimal β-sheet content. Lyophilized peptides were stored at −80° C. and resuspended immediately prior to each experiment in the appropriate diluent.\nThe effect of compounds of the present invention on aggregation of Aβ 1-40 peptide was tested using a Thioflavin-T assay according to previously published methods. Aggregation of Aβ 1-40 incubated alone was measured for comparison. Aβ 1-40 was HFIP treated (as described above) and reconstituted in 100 mM Tris buffer (pH 7.4) to obtain a 100 μmol/L concentration. Stock of investigational compounds (50 mmol/L stock diluted in DMSO) was added to Aβ 1-40 to achieve of a concentration 10 or 100 μmol/L of investigational compound in 100 μmol/L of Aβ 1-40. All incubations were performed over a period of 7 days at 37° C. and the incubation mixture was slowly mixed for 6 hours every 24 h. At the conclusion of the experiment samples containing 15 μg of Aβ 1-40 with and without investigational compounds were added to 1 mL of 50 mM glycine, pH 9.2 and 2 μM of Thioflavin-T (Sigma Chemical, Co.; St. Louis, Mo.). Fluorescence was measured at an excitation of 435 nm and an emission of 485 nm in a Perkin-Elmer LS-50B fluorescence spectrophotometer (Perkin Elmer Instruments, Shelton, Conn.). A time scan of fluorescence was performed and three values after the decay reached a plateau (280, 290, 300 seconds) were averaged. The background fluorescence of 40 μL of Tris buffer added to 2 μM/L of Thioflavin-T solution was subtracted. Samples were run in duplicate. Differences in amount of fibrils formed in the presence of investigational compounds were evaluated by means of one-way ANOVA followed by a Dunnet post-hoc test using Statistica (version 6.1, StatSoft Inc., OK).\n[…] monomerized synthetic Aβ40 was incubated in 0.1M Tris pH 7.0, T=37° C. for 8 days in the presence of 0-100 μM concentration of compounds. […] An arrow indicates Aβ monomers clustered in ill developed protofibril. (C) Oligomerization assay. ARN4261 and ARN4224 reduced the amount of Aβ oligomers by 78% and 74%, respectively p<0.001. A compound 69b (GKLVFNmgA) was used as a positive control. 69b is homologous to Aβ sequence 17-21 and contains N-methyl glycine (Nmg), which renders it capable of anti-fibrillization and anti-oligomerization effect. (D) Principle of oligomerization assay. 100 μM Aβ40 was aggregated alone or with the addition of 10 μM of tested compounds [1:10 compound: Ab ratio] for 24 h in conditions promoting oligomers assembly, i.e., DMEM/F-12 medium+0.2% SDS, T=4° C. Prior to SDS-PAGE in non-reducing conditions samples were treated with glutaraldehyde. A strong smear of Aβ oligomers is seen between 37 and 70 KDa markers (arrows) in lane 2, and a dense band below the 25 KDa marker reflects Aβ monomers non-dissociated by 10% polyacrylamide gel. No oligomers above 37 KDa marker are seen in lane 1 containing only Aβ monomers run as a control. […] (E) TEM of Aβ oligomers. […] Yellow arrowhead indicates smaller oligomers."}, "[4]": {"tested_on": "APP mRNA", "assay": "APP mRNA level in 751APPSW CHO cells", "format": "cell-based, human", "procedure": "D. APP was immunoprecipitated with 22C11 mAb against its N-terminus. Representative radiographs (B) and densitometric results averaged from three independent experiments are shown (A). […] Two sets of experiments were conducted using either actin or GAPDH as housekeeping genes."}}, "note": "“Also recorded” adds a separate entry of the source.", "data": [{"smiles": "Oc1ccccc1NCc1ccccn1", "note": "[ARN2966, 2-[(pyridine-2-ylmethyl)-amino]-phenol]", "values": [{"measurement": "Emax", "setting": "[1]", "result": 84.5, "unit": "%"}, {"measurement": "IC50", "setting": "[1]", "result": 5.53, "unit": "µM"}, {"measurement": "Emax", "setting": "[2]", "result": "97 ± 0.3", "unit": "%"}, {"measurement": "IC50", "setting": "[2]", "result": 0.81, "unit": "µM"}, {"measurement": "behaviour in anti-Aβ aggregation assays", "setting": "[3]; compared with ARN4261", "result": "behaves comparably to ARN4261"}, {"measurement": "APP mRNA level", "setting": "[4]", "result": "No change; also recorded: lack of substantial effect"}]}, {"smiles": "Oc1ccccc1N=Cc1ccccn1", "note": "[ARN4261, 2-(Pyridin-2-ylmethyleneamino)-phenol]", "values": [{"measurement": "Emax", "setting": "[1]", "result": "98.9 ± 0.4", "unit": "%"}, {"measurement": "IC50", "setting": "[1]", "result": 6.54, "unit": "µM"}, {"measurement": "Emax", "setting": "[2]", "result": "97.4 ± 0.25", "unit": "%"}, {"measurement": "IC50", "setting": "[2]", "result": 0.82, "unit": "µM"}, {"measurement": "EC50", "setting": "[3]; 100 μM HFIP monomerized synthetic Aβ40, 0.1M Tris pH 7.0, 37° C., 8 days, 0-100 μM compound, read-out: EC50 of fibril reduction", "result": 16, "unit": "µM"}, {"measurement": "Emax", "setting": "[3]; pH 7, read-out: EMAX (% of maximal fibril reduction)", "result": 88, "unit": "%"}, {"measurement": "TEM analysis of Aβ fibrils", "setting": "[3]; transmission electron microscopy", "result": "markedly reduced density and length of Aβ fibrils"}, {"measurement": "APP mRNA level", "setting": "[4]", "result": "lack of substantial effect"}]}]}
